Experiments:
[1] = test system: participants with cocaine use disorder; assay: Medical safety session: cardiovascular measures after intranasal cocaine; assay type: in vivo, human
Method: Participants completed one, single-blind medical safety session to ensure they could tolerate intranasal cocaine. Intranasal cocaine doses (i.e., 0 [placebo], 10, 20, 40 and 80 mg) were administered in ascending order. Placebo (i.e., 0 mg) was administered at 0900 hours. The subjective-effect questionnaires and cardiovascular measures described below were completed 30 minutes before placebo administration (i.e., 0830 hours), immediately following and at 15-minute intervals for 45 minutes. Subsequent cocaine administrations were separated by 45 minutes.

[2] = test system: participants with cocaine use disorder; assay: Experimental sessions: cardiovascular measures after cocaine sampling dose during maintenance; settings: cocaine 80 mg during topiramate (50 or 100 mg/day)+phentermine (0 mg/day) relative to cocaine 0 mg during 0+0 mg/day
[3] = Cocaine 10 mg, Topiramate (0 mg/day) group
[4] = Cocaine 10 mg, Topiramate (50 mg/day) group
[5] = Cocaine 10 mg, Topiramate (100 mg/day) group
[6] = Cocaine 20 mg, Topiramate (0 mg/day) group
[7] = Cocaine 20 mg, Topiramate (50 mg/day) group
[8] = Cocaine 20 mg, Topiramate (100 mg/day) group
[9] = Cocaine 40 mg, Topiramate (0 mg/day) group
[10] = Cocaine 40 mg, Topiramate (50 mg/day) group
[11] = Cocaine 40 mg, Topiramate (100 mg/day) group
[12] = Cocaine 80 mg, Topiramate (0 mg/day) group
[13] = Cocaine 80 mg, Topiramate (50 mg/day) group
[14] = Cocaine 80 mg, Topiramate (100 mg/day) group

COC(=O)[C@H]1[C@@H](OC(=O)c2ccccc2)C[C@@H]2CC[C@H]1N2C [Cocaine, cocaine] was tested, and the “Vitals Diastolic Pressure, mean peak effect” value (from here on “Vitals Diastolic Pressure”) [1, 3] was 77.2, the “Vitals Heart Rate, mean peak effect” value [1, 3] was 70.9 and the “Vitals Systolic Pressure, mean peak effect” value (shortened to “Vitals Systolic Pressure”) [1, 3] was 121.1. For the same compound, the “Vitals Diastolic Pressure” value [1, 4] was 84.8, the “Vitals Heart Rate, mean peak effect” value [1, 4] was 67.4 and the “Vitals Systolic Pressure” value [1, 4] was 123.9. For the same compound, the “Vitals Diastolic Pressure” value [1, 5] was 82.6, the “Vitals Heart Rate, mean peak effect” value [1, 5] was 66.7 and the “Vitals Systolic Pressure” value [1, 5] was 125.1. For the same compound, the “Vitals Diastolic Pressure” value [1, 6] was 81.5, the “Vitals Heart Rate, mean peak effect” value [1, 6] was 77.9 and the “Vitals Systolic Pressure” value [1, 6] was 125.3. The “Vitals Diastolic Pressure” value [1, 7] was 84.1, the “Vitals Heart Rate, mean peak effect” value [1, 7] was 66.6 and the “Vitals Systolic Pressure” value [1, 7] was 131.8. For the same compound, the “Vitals Diastolic Pressure” value [1, 8] was 82.3, the “Vitals Heart Rate, mean peak effect” value [1, 8] was 64.6 and the “Vitals Systolic Pressure” value [1, 8] was 128.3. The “Vitals Diastolic Pressure” value [1, 9] was 81.6, the “Vitals Heart Rate, mean peak effect” value [1, 9] was 74.8 and the “Vitals Systolic Pressure” value [1, 9] was 124.9. For the same compound, the “Vitals Diastolic Pressure” value [1, 10] was 82.4, the “Vitals Heart Rate, mean peak effect” value [1, 10] was 70.8 and the “Vitals Systolic Pressure” value [1, 10] was 129.9. For the same compound, the “Vitals Diastolic Pressure” value [1, 11] was 86.5, the “Vitals Heart Rate, mean peak effect” value [1, 11] was 67.8 and the “Vitals Systolic Pressure” value [1, 11] was 131.7. For the same compound, the “Vitals Diastolic Pressure” value [1, 12] was 85.9, the “Vitals Heart Rate, mean peak effect” value [1, 12] was 85.8 and the “Vitals Systolic Pressure” value [1, 12] was 130.5. For the same compound, the “Vitals Diastolic Pressure” value [1, 13] was 84.8, the “Vitals Heart Rate, mean peak effect” value [1, 13] was 78.0 and the “Vitals Systolic Pressure” value [1, 13] was 133.8. The “Vitals Diastolic Pressure” value [1, 14] was 88.3, the “Vitals Heart Rate, mean peak effect” value [1, 14] was 77.6 and the “Vitals Systolic Pressure” value [1, 14] was 137.4. The “heart rate or blood pressure” value ([1]; cocaine 20, 40 or 80 mg above placebo levels in at least one of the topiramate groups, medical safety session) was “significantly increased” and the heart rate [2] was “significantly increased”.
